Assay results published in patent publication US20140378531A1, “INHIBITION OF PATTERN RECOGNITION RECEPTORS IN PANCREATIC CANCER TREATMENT USING TLR INHIBITORS” (NEW YORK UNIVERSITY, priority 2012, published 2014).

Experiments:
Type in all cases: in vivo
[1] = L-arginine induced pancreatic injury; conditions: WT mice, L-arginine for one week
TLR7 = target: T1, TLR7 (Mus musculus, UniProt P58681); test: TLR7 blockade in caerulein-accelerated pancreatic carcinogenesis in p48Cre;Kras^G12D mice; conditions: caerulein 50 μg/kg, two doses over 48 hours
T1 construct: from tissue; host or cells: whole animal: p48Cre;Kras^G12D mice and WT C57BL/6 mice; TLR7 on pancreatic leukocytes and epithelial cells
T1 sequence (P58681 27-1050): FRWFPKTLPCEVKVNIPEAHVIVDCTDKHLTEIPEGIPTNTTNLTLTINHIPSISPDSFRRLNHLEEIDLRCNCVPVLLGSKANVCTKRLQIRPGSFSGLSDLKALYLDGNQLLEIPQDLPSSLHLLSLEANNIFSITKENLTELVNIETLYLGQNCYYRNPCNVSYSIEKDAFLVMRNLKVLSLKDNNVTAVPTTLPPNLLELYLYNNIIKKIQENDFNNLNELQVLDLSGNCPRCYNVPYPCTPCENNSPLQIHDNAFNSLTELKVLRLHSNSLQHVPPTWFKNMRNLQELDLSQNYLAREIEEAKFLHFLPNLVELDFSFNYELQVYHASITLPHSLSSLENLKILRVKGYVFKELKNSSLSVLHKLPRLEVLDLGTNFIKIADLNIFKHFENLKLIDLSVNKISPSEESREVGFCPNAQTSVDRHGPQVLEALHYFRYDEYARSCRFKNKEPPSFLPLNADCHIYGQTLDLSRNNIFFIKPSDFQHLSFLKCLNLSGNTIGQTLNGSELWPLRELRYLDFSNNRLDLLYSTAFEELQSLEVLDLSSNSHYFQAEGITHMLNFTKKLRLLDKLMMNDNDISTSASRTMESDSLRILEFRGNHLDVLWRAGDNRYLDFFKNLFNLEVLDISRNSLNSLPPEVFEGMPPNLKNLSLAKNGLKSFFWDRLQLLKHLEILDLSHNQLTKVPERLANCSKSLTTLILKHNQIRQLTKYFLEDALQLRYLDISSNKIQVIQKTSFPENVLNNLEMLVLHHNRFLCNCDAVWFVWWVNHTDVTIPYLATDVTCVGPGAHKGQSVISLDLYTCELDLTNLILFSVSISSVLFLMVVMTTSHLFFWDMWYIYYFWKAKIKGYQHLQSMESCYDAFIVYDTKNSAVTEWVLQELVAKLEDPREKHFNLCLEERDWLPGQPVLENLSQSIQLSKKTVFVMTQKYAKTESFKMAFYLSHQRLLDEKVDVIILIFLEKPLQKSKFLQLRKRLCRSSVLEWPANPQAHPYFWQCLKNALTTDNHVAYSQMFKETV

MAP Kinase = MAP Kinase or NF-κB blockade in caerulein + ssRNA40 pancreatitis; conditions: mice, caerulein for 3 weeks + ssRNA40 + pathway blockade
Description: FIG. 15. TLR7 agonists exacerbate pancreatic inflammation via NF-κB and MAP Kinase dependent mechanisms. Mice were treated for 3 weeks with caerulein to induce pancreatitis.
In vivo TLR7 ligation was accomplished by thrice weekly i.p administration of selective TLR7 agonists (ssRNA40, E. coli RNA, or Adenine analogue, all 100 μg/kg; Invivogen, San Diego, Calif.). TLR7 blockade was accomplished using an oligonucleotide inhibitor of TLR7 (Guiducci et al., 2010) (IRS661, 100 μg, 3× per week; Dynavax, Berkeley, Calif.). Bone marrow chimeric animals were created by irradiating mice ([…]) followed by i.v. bone marrow transfer (1×10^7 cells) from non-irradiated donors as described (Bedrosian et al., 2011) Chimeric mice were employed in experiments 7 weeks later. In selected experiments, to accelerate carcinogenesis in p48Cre;Kras^G12D mice, two doses of caerulein (50 μg/kg) were administered over 48 hours as described (Carriere et al., 2009). MAP Kinase signaling blockade was accomplished using the MKK inhibitor PD98059 (2.5 mg/kg/day), the p38 inhibitor SB203580 (30 mg/kg/day), or the JNK inhibitor SP600125 (50 mg/kg/day; all Invivogen). Selective NF-κB signaling blockade was accomplished using either the NEMO binding domain inhibitor (1 mg/kg/day, EMD4Biosciences, Gibbstown, N.J.) or the IkB inhibitor Bay11-7082 (1.25 mg/kg/day; Invivogen). […]

For N=C(N)NCCC[C@H](N)C(=O)O [L-arginine], the pancreatic injury [1] was “induced mild pancreatic edema and inflammation”.

In the case of caerulein, the “pancreatic histology after caerulein alone” value (TLR7) was “developed invasive pancreatic adenocarcinoma within an extensive bed of fibro-inflammatory stroma”.

With COc1cccc(-c2cc(=O)c3ccccc3o2)c1N [PD98059] the “effects of TLR7 ligation on fibro-inflammatory pancreatic disease” value (MAP Kinase) was “protected from effects of TLR7 ligation”.
